Laboratory results from PubChem BioAssay (NCI).
“And” between values parts separate entries of the source, which are not always exact repeats. Identical values can stand only once.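 96-well plates; 48 h exposure; 5 concentrations. Endpoints by linear interpolation between flanking doses. Not reached: highest tested concentration assigned. Abbreviation: GI50, concentration required for 50% inhibition of growth. TGI: total growth inhibition.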

Experiments:
Experiment in all cases: inhibition of tumour cell growth, NCI panel, 48 h
[1] = system: A549 NSCLC
[2] = system: CCRF-CEM leukemia
[3] = system: COLO 205 colon
[4] = system: K-562 leukemia
[5] = system: M14 melanoma
[6] = system: MDA-MB-435
[7] = system: MDA-N
[8] = system: OVCAR-8 ovarian
[9] = system: SF-295 CNS
[10] = system: SK-MEL-2 melanoma
[11] = system: U251 CNS
[12] = system: UACC-62 melanoma
[13] = system: UO-31 renal

Compound	TGI [1]	TGI [2]	TGI [3]	TGI [4]	TGI [5]	TGI [6]	TGI [7]	TGI [8]	TGI [9]	TGI [10]	TGI [11] [µM]	TGI [12]	TGI [13]	GI50 [1]	GI50 [3]	GI50 [5]	GI50 [10]	GI50 [11] [µM]	GI50 [12]	GI50 [13]
Cc1nnc(Nc2ccccc2)o1	> 100 µM	> 100 µM	> 100 µM	> 100 µM	> 100 µM	> 100 µM	> 100 µM	> 100 µM	> 100 µM	> 100 µM	> 100	> 100 µM	> 100 µM							
CN(CCC#N)c1ccc(/C=C2\SC(=S)NC2=O)cc1	> 100 µM	> 100 µM	> 100 µM	> 100 µM	> 100 µM	> 100 µM	> 100 µM	> 100 µM	> 100 µM	> 100 µM	> 100	47.3 µM	> 100 µM							
Cc1ccc([C@@H]2[C@@H](C(=O)c3ccccn3)[C@H](c3ccc(C)cc3)C[C@](O)(c3ccccn3)[C@H]2C(=O)c2ccccn2)cc1	> 44.7 µM	4.43 µM	> 100 µM	> 100 µM	3.01 µM	> 100 µM	> 28.5 µM	> 100 µM	> 100 µM	> 100 µM	> 100	35.2 µM	> 100 µM							
COc1cccc2c(N)c3cccc(C(=O)NCCN(C)C)c3nc12	2.16 µM	0.288 µM	0.592 µM	0.383 µM	1.71 µM	1.18 µM	0.982 µM	0.594 µM	2.01 µM	1.05 µM	1.57	0.78 µM	3.04 µM							
CN1C(=O)N(c2ccccc2)C2(CCN(CC3COc4ccccc4O3)CC2)C1=O (stereo not drawn)	> 100 µM	> 100 µM	> 100 µM	> 100 µM	> 100 µM	> 100 µM	> 100 µM	> 100 µM	> 100 µM	> 100 µM	> 100	> 100 µM	> 100 µM							
COc1ccc(C2CC(c3c(O)ccc4ccccc34)=NN2c2ccc([N+](=O)[O-])cc2[N+](=O)[O-])cc1OC (stereo not drawn)	98.3 µM	> 50.3 µM	49 µM	20.2 µM	> 100 µM	> 100 µM	> 100 µM	27.3 µM	> 87.1 µM	> 65.1 µM	> 100	> 100 µM	97.4 µM							
Cc1nnc2n1N=C(c1cc(F)c(Cl)cc1Cl)/C(=C/c1ccc(Cl)cc1)S2	99.6 µM	> 100 µM	> 100 µM	> 100 µM	43 µM	29.1 µM	35.4 µM	> 100 µM	35.5 µM	26.2 µM	38.5	52.8 µM	27.4 µM							
C[C@@]12[C@H]3CC[C@@H]1[C@H](O)C(=O)N2CC3	> 100 µM	> 100 µM	> 100 µM	> 100 µM	> 100 µM	> 100 µM	> 100 µM	> 100 µM	> 100 µM	> 100 µM	> 100	> 100 µM	> 100 µM							
COCOC1/C=C/CCCC#C[C@H](C)C(=O)CC1 (stereo partly drawn)	21.1 µM	8.46 µM	17.6 µM	5.28 µM	21 µM	19.5 µM	24.3 µM	38 µM	31.7 µM	31.3 µM	24.8	22.6 µM	28 µM							
COC(=O)C1(C(=O)OC)CC2=C(S(=O)(=O)c3ccccc3)C[C@H](S(=O)(=O)c3ccccc3)[C@H]2C1	> 100 µM	> 100 µM	> 100 µM	58.5 µM	> 100 µM	> 100 µM	> 100 µM	> 100 µM	> 100 µM	> 100 µM	> 100	71.6 µM	> 100 µM							
CC(=O)OCC1OC(OC(C)(C)CC/C=C(\C)[C@@H]2C/C=C(\C)CC/C=C(\C)CC2)C(O)C(O)C1OC(C)=O (stereo partly drawn)	> 100 µM and 36 µM	20.8 µM and 67 µM	76.9 µM and 32.5 µM	61.4 µM and > 100 µM	> 100 µM and 47.8 µM	> 82.5 µM and 38.8 µM	> 61.4 µM and 41.5 µM	82.3 µM and 43.5 µM	> 100 µM and 42.4 µM	> 100 µM and 29.9 µM	> 100	> 100 µM and 30.6 µM	> 100 µM and 25.6 µM	> 65.2 µM and 16.2 µM	35.7 µM and 15.8 µM	60 µM and 19.7 µM	> 64.3 µM and 16.4 µM	39.3	> 92.8 µM and 15.3 µM	53.4 µM and 12.7 µM
CCN1CC2=C(NC(=S)NC2c2ccc(Cl)cc2)/C(=C/c2ccc(Cl)cc2)C1 (stereo not drawn)	> 100 µM	87.7 µM	> 100 µM	> 100 µM	> 100 µM	> 100 µM	> 100 µM	> 100 µM	> 100 µM	> 100 µM	> 100	> 100 µM	> 100 µM							
O=C(CN1c2ccccc2Sc2ccccc21)N1CCNCC1	> 100 µM	> 100 µM	> 100 µM	> 100 µM	> 100 µM	> 100 µM	> 100 µM	> 100 µM	> 100 µM	> 100 µM	> 100	> 100 µM	> 100 µM							
CC(C)(N=NC(C)(C)C(=O)NCCO)C(=O)NCCO	> 100 µM	> 100 µM	> 100 µM	> 100 µM	> 100 µM	> 100 µM	> 100 µM	> 100 µM	> 100 µM	> 100 µM	> 100	> 100 µM	> 100 µM							
C=C1CC(COc2cc(=O)oc3ccccc23)(c2ccccc2)OC1=O (stereo not drawn)	25.1 µM	2.26 µM	3.1 µM	3.1 µM	3.3 µM	11 µM	5.57 µM	4.87 µM	22.7 µM	2.33 µM	25.3	2.92 µM	16 µM							
OCC1CCCCCCCCCCC12SCCCS2 (stereo not drawn)	> 100 µM	> 100 µM	> 100 µM	> 100 µM	> 100 µM	> 100 µM	> 100 µM			> 100 µM	> 100	> 100 µM	> 100 µM							
